Molecular target: Excitatory amino acid transporter 1 (Homo sapiens, UniProt P43003)
Assay: Substrate uptake by the Excitatory Amino Acid Transporter 1 (EAAT1, SLC1A3) as assessed by the fluorescent FLIPR membrane potential dye in HEK-293 JumpIN-SLC1A3 cells (PubChem AID: 1745864)
Assay type: functional, cell-based, HEK293

Excitatory amino acid transporter 1, sequence (P43003 whole entry): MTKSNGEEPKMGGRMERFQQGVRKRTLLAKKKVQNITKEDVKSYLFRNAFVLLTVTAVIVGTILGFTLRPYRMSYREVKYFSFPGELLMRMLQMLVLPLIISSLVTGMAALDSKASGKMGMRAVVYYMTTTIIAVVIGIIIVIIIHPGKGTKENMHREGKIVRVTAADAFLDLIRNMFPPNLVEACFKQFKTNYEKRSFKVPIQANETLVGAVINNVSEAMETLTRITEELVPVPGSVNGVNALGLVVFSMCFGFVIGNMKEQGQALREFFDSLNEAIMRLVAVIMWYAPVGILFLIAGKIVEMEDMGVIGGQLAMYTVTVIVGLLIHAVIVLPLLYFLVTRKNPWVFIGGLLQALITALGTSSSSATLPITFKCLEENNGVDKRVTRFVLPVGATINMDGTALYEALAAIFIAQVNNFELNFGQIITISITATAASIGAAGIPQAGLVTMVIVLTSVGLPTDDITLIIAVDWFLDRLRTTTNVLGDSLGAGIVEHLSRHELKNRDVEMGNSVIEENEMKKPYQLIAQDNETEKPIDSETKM

N[C@@H](CS)C(=O)O [CYSTEINE]
EC50: 376 µM

N[C@@H](CCC(=O)O)C(=O)O [GLUTAMIC ACID]
EC50: 16 µM
